Results taken from patent publication US20240398893A1, “ANTI-CORONAVIRUS POLYPEPTIDE AS WELL AS DERIVATIVE AND APPLICATION THEREOF” (priority 2021, published 2024).

System: pseudovirus of SARS-COV-2 variant Omicron (BA.1)
Conditions: pseudovirus of variant Omicron (BA.1)

In the case of `CC[C@H](C)[C@H](NC(=O)CNC(=O)[C@H](CO)NC(=O)[C@@H](NC(=O)[C@H](CC(=O)O)NC(=O)CNC(=O)[C@H](Cc1ccccc1)NC(=O)[C@H](CCCCN)NC(=O)[C@@H](N)C(C)C)[C@@H](C)CC)C(=O)N[C@@H](CC(N)=O)C(=O)N[C@@H](C)C(=O)N[C@@H](CO)C(=O)N[C@H](C(=O)N[C@H](C(=O)N[C@@H](CC(N)=O)C(=O)N[C@H](C(=O)N[C@@H](CCCCN)C(=O)N[C@@H](CCC(=O)O)C(=O)N[C@@H](CCC(=O)O)C(=O)N[C@H](C(=O)N[C@@H](CC(=O)O)C(=O)N[C@@H](CCCNC(=N)N)C(=O)N[C@@H](CC(C)C)C(=O)N[C@@H](Cc1ccc(O)cc1)C(=O)N[C@@H](CCC(=O)O)C(=O)N[C@H](C(=O)N[C@H](C(=O)N[C@@H](CCCCN)C(=O)N[C@@H](CC(N)=O)C(=O)N[C@@H](CC(C)C)C(=O)N[C@@H](CC(N)=O)C(=O)N[C@@H](CCC(=O)O)C(=O)N[C@@H](CO)C(=O)N[C@@H](CC(C)C)C(=O)N[C@H](C(=O)N[C@@H](CC(=O)O)C(=O)N[C@@H](CC(C)C)C(=O)N[C@@H](CCC(N)=O)C(=O)N[C@@H](CCC(=O)O)C(=O)N[C@@H](CC(C)C)C(=O)NCC(=O)N[C@@H](CO)C(=O)NCC(=O)N[C@@H](CO)C(=O)NCC(=O)N[C@@H](CSCC(=O)O[C@H]1CC[C@@]2(C)C(=CC[C@H]3[C@@H]4CC[C@H]([C@H](C)CCCC(C)C)[C@@]4(C)CC[C@@H]32)C1)C(N)=O)[C@@H](C)CC)C(C)C)C(C)C)[C@@H](C)CC)[C@@H](C)CC)C(C)C)C(C)C` [P3-3-GS-Chol], the EC50 is reported as 1730 nM.

With `CC[C@H](C)[C@H](NC(=O)CNC(=O)[C@H](CO)NC(=O)[C@@H](NC(=O)[C@H](CC(=O)O)NC(=O)CNC(=O)[C@H](Cc1ccccc1)NC(=O)[C@H](CCCCN)NC(=O)[C@@H](N)C(C)C)[C@@H](C)CC)C(=O)N[C@@H](CC(N)=O)C(=O)N[C@@H](C)C(=O)N[C@@H](CO)C(=O)N[C@H](C(=O)N[C@H](C(=O)N[C@@H](CC(N)=O)C(=O)N[C@H](C(=O)N[C@@H](CCCCN)C(=O)N[C@@H](CCC(=O)O)C(=O)N[C@@H](CCC(=O)O)C(=O)N[C@H](C(=O)N[C@@H](CC(=O)O)C(=O)N[C@@H](CCCNC(=N)N)C(=O)N[C@@H](CC(C)C)C(=O)N[C@@H](Cc1ccc(O)cc1)C(=O)N[C@@H](CCC(=O)O)C(=O)N[C@H](C(=O)N[C@H](C(=O)N[C@@H](CCCCN)C(=O)N[C@@H](CC(N)=O)C(=O)N[C@@H](CC(C)C)C(=O)N[C@@H](CC(N)=O)C(=O)N[C@@H](CCC(=O)O)C(=O)N[C@@H](CO)C(=O)N[C@@H](CC(C)C)C(=O)N[C@H](C(=O)N[C@@H](CC(=O)O)C(=O)N[C@@H](CC(C)C)C(=O)N[C@@H](CCC(N)=O)C(=O)N[C@@H](CCC(=O)O)C(=O)N[C@@H](CC(C)C)C(=O)N[C@@H](CSCC(=O)NCCOCCOCCOCCOCC(=O)O[C@H]1CC[C@@]2(C)C(=CC[C@H]3[C@@H]4CC[C@H]([C@H](C)CCCC(C)C)[C@@]4(C)CC[C@@H]32)C1)C(N)=O)[C@@H](C)CC)C(C)C)C(C)C)[C@@H](C)CC)[C@@H](C)CC)C(C)C)C(C)C` [P3-3-PEG-Chol] the EC50 was 571 nM.

For `CC[C@H](C)[C@H](NC(=O)CNC(=O)[C@H](CO)NC(=O)[C@@H](NC(=O)[C@H](CC(=O)O)NC(=O)CNC(=O)[C@H](Cc1ccccc1)NC(=O)[C@H](CCCCN)NC(=O)[C@@H](N)C(C)C)[C@@H](C)CC)C(=O)N[C@@H](CC(N)=O)C(=O)N[C@@H](C)C(=O)N[C@@H](CO)C(=O)N[C@H](C(=O)N[C@H](C(=O)N[C@@H](CC(N)=O)C(=O)N[C@H](C(=O)N[C@@H](CCCCN)C(=O)N[C@@H](CCC(=O)O)C(=O)N[C@@H](CCC(=O)O)C(=O)N[C@H](C(=O)N[C@@H](CC(=O)O)C(=O)N[C@@H](CCCNC(=N)N)C(=O)N[C@@H](CC(C)C)C(=O)N[C@@H](Cc1ccc(O)cc1)C(=O)N[C@@H](CCC(=O)O)C(=O)N[C@H](C(=O)N[C@H](C(=O)N[C@@H](CCCCN)C(=O)N[C@@H](CC(N)=O)C(=O)N[C@@H](CC(C)C)C(=O)N[C@@H](CC(N)=O)C(=O)N[C@@H](CCC(=O)O)C(=O)N[C@@H](CO)C(=O)N[C@@H](CC(C)C)C(=O)N[C@H](C(=O)N[C@@H](CC(=O)O)C(=O)N[C@@H](CC(C)C)C(=O)N[C@@H](CCC(N)=O)C(=O)N[C@@H](CCC(=O)O)C(=O)N[C@@H](CC(C)C)C(=O)O)[C@@H](C)CC)C(C)C)C(C)C)[C@@H](C)CC)[C@@H](C)CC)C(C)C)C(C)C` [P3-3], the EC50 was 22700 nM.
